# Results taken from paper PMC10157211, “Four new suomilides isolated from the cyanobacterium Nostoc sp. KVJ20 and proposal of their biosynthetic origin” (Frontiers in Microbiology, 2023).
# pIC50: −log10 of the molar value.
# Columns and labels:
# [1] = Dissolution of isolated fractions in solvent; format: physicochemical
# Protocol: Compounds 1–4 were isolated using mass-guided fractionation on preparative HPLC from 29.4 g dry mass of lyophilizated cyanobacteria from 10 L of culture. For the first purification step, the compounds were separated using a C18 reversed phase column. The collected fractions were reduced to dryness at 40°C in vacuo. […] The yields were: 1: 9.8 mg; 2: 4.1 mg; 3: 5.9 mg; 4: 2.6 mg.
# trypsin-3 = conditions: ref Ahmed et al., 2021, cited from earlier work
# Description: (§1) Compounds 5 and 6 were originally isolated via bioassay guided purification using a serine-protease inhibition assay when they were discovered in 2005 ([Pluotno and Carmeli, 2005]). The two banyasides were reported to inhibit the catalytic activity of trypsin. As far as we know, anti-bacterial activity of suomilide have not been reported previously, and the Nostoc sp. strain it has been isolated from was reported as non-toxic. This complies with our results, as no activity could be detected for 1–4 against bacteria or cell lines at high concentrations. Suomilide A has recently been investigate ...
# trypsin-2 = conditions: ref Ahmed et al., 2021; read-out: IC50 trypsin-2 inhibition; cited from earlier work
# Description: as §1
# prostate cancer cells = conditions: concentration of 3.3 μM; ref Ahmed et al., 2021; cited from earlier work
# Description: as §1
# trypsin-1 = conditions: ref Ahmed et al., 2021; read-out: IC50 trypsin-1 inhibition; cited from earlier work
# Description: as §1
# [2] = test system: cancer cell proliferation; conditions: ref Ahmed et al., 2021; cited from earlier work
# Description: as §1
# trypsin = conditions: ref Pluotno and Carmeli, 2005; cited from earlier work
# Description: as §1
substance,measurement,setting,value
Suomilide B [Compound 1],solubility in DMSO (qualitative),"[1]; dried HPLC fraction dissolved in DMSO, after extensive shaking",well
same,solubility in methanol (qualitative),[1]; dried HPLC fraction dissolved in methanol,dissolved poorly
suomilide [Suomilide A],pIC50,trypsin-3; read-out: IC50 trypsin-3 inhibition,7.94
same,residence time,trypsin-3; surface plasmon resonance spectroscopy,57 min
same,pIC50,trypsin-2,8.33
same,inhibition of invasion of prostate cancer cells,prostate cancer cells,inhibit the invasion
same,pIC50,trypsin-1,6.98
same,effect on cancer cell proliferation,[2],no effect
banyaside A [Compound 5],inhibition of the catalytic activity of trypsin,trypsin,inhibit
banyaside B [Compound 6],inhibition of the catalytic activity of trypsin,trypsin,inhibit
